The text below walks through data of US10494404B2, “Quinolinium conjugates of cyclosporin” (priority 2014, dated 2019).

For one data set, the target named is Cylophilin D (CypD) (Homo sapiens, UniProt P30405). Description: Cyclophilin D competitive fluorescence polarization assay. To be noted: competitive FP assay; FP-CsA 45 nM, enzyme 40 nM; read-out: Ki for cylophilin D binding.
The test system of data set [1] is Ca^2+ mediated PT pore formation. Description: Calcium retention capacity (CRC) assay, isolated WT mouse liver mitochondria. The data set is classed as biochemical. To be noted: 8 nM. The source says:
In order to assess the efficiency of compounds on Ca^2+ mediated PT pore formation we measured calcium retention capacity (CRC) of isolated mouse liver mitochondria. […] Energised mitochondria take up Ca^2+, resulting in a declining fluorescent signal following the Ca^2+ bolus induced peak. Mitochondria take up and buffer Ca^2+ up to a threshold when intramitochondrial [Ca^2+] reaches threshold to induce PT. […] The amount of Ca^2+ required to induce PT characterizes its Ca^2+ sensitivity and defines mitochondrial CRC. Inhibition of CypD, the Ca^2+ sensor of PT, thus leads to increased CRC.
Further experiments were carried out using the techniques discussed in Example 4.
Subcellular fractionation was performed as previously described (Astin et al, 2013). […] At 4° C., the liver was rinsed in PBS to remove excess blood, and any fat and connective tissue was eliminated. PBS was then replaced with isolation buffer containing 1 mM PMSF, and the liver was chopped into pieces (approximately 2 mm in length). Tissue was then homogenized in this solution until no solid matter remained, and then centrifuged at 800G for 10 minutes at 4° C. The nuclear pellet was then discarded, and the post nuclear supernatant retained, and centrifuged at 10300G for another 10 minutes at 4° C. The postmitochondrial supernatant was discarded, and the mitochondrial pellet was resuspended in isolation buffer and PMSF, and kept on ice. Protein levels were quantified using a ThermoScientific BCA protein quantification assay, as per manufacturer's instructions.
Isolated mitochondria were resuspended (500 μg protein/ml) in MSK buffer (75 mM mannitol, 25 mM sucrose, 5 mM potassium phosphate monobasic, 20 mM Tris-HCl, 100 mM KCl, and 0.1% bovine serum albumin, pH 7.4) supplemented with 10 mM succinate, 1 μM rotenone and 1 μM Fluo5N. 200 μl mitochondrial suspension per well was used in 96 well microplates. Compounds were incubated for ten minutes before the plate was assayed in a Fluostar Optima plate reader, using Ex/Em filters at 480/520 […]; CaCl2 was injected approximately every 6.5 minutes for 80 minutes (12 total injections, final concentration of 75 μM). To calculate % inhibition of Ca^2+ induced pore opening, first areas under each curve were calculated, and controls without CaCl2 addition were subtracted as background. The background corrected values were then expressed as the fraction of controls without mitochondria, representing the total amount of Ca^2+ added, unbuffered by mitochondria. Percentage inhibition for each [compound] was then calculated as the % of the corresponding value for the untreated condition. […] For experiments with CypD −/− mice, 100 ul mitochondrial suspension per well was used. CaCl2) was injected approximately every 6.5 minutes for 135 minutes (20 total injections, final concentration of 266 μM). Data were background corrected and expressed as the fraction of controls without mitochondria, and then normalised to the wild type no drug condition. Significance was assessed by one way ANOVA.

Another data set relates to HepG2 cells. In words: HepG2 high content screening of cell health markers. The data set is classed as cell-based. To be noted: HepG2, 72 h exposure. The method, then:
HepG2 cells were plated on 96-well tissue culture treated black walled clear bottomed polystyrene plates, 100 μL, (3000 cells) per well. After 24 hours the cells were dosed with the test compounds at a range of concentrations. At the end of the incubation period, the cells were loaded with the relevant dye/antibody for each cell health markers set out below. The plates were then scanned using an automated fluorescent cellular imager [ArrayScan VTI (Thermo Scientific Cellomics)].
The following cell health markers were measured: • a. Cell count—a decreasing number of cells per well indicates toxicity due to necrosis, apoptosis or a reduction in cellular proliferation. • b. Nuclear area—an increase in nuclear size indicates necrosis or G2 cell cycle arrest and a decrease indicates apoptosis. • c. DNA structure—an increase in DNA structure indicates chromosomal instability and DNA fragmentation. • d. […]
HepG2 cells were seeded in black, clear-bottom 96-well tissue culture plates at a density of 3000 cells per well. […] Cell count, nuclear size and DNA structure were also measured Hoechst 33342 (Life Technologies). Following staining of the HepG2 cells fluorescence was analyzed by image acquisition with a Thermo Fisher Cellomics® ArrayScanVTI High Content Screening Reader (ThermoFisher Scientific Inc., Waltham, Mass.) and vHCS™ view software (ThermoFisher Scientific Inc.). […]

Each structure is given as a SMILES string.

Cylophilin D (CypD), sequence (P30405 30-207): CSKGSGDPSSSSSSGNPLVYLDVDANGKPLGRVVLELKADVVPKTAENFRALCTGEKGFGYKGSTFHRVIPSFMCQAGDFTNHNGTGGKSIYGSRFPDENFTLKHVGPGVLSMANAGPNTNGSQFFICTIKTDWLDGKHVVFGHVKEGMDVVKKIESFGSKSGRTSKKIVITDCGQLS
Description for Cylophilin D (CypD): A competitive fluorescence polarization assay (FP-assay) was used.
Polarization was determined by measuring the ratios between parallel and perpendicular polarized light and calculated as described by Roehrl et al 2004.
Titration of a single probe concentration against different enzyme concentrations was used to determine the dissociation constant (Kd) (Nikolovska et al 2004). The inhibitor constant (Ki) was calculated with the equation shown below in Equation A. (Nikolovska et al 2004).
Three replicates were used for this experiment. […] DMSO % in total solution should remain lower than 1%.

Take `C/C=C/C[C@@H](C)[C@@H](O)[C@H]1C(=O)N[C@@H](CC)C(=O)N(C)C(C/C=C/CCC[n+]2cccc3ccccc32)C(=O)N(C)[C@@H](CC(C)C)C(=O)N[C@@H](C(C)C)C(=O)N(C)[C@@H](CC(C)C)C(=O)N[C@@H](C)C(=O)N[C@H](C)C(=O)N(C)[C@@H](CC(C)C)C(=O)N(C)[C@@H](CC(C)C)C(=O)N(C)[C@@H](C(C)C)C(=O)N1C` (stereo partly shown) [Compound 2, [Sar-(E)-Hexen-2-yl 6-quinolinium]^3 CsA]: the Ki (usually the equilibrium dissociation constant of an inhibitor or competing ligand from its target) on Cylophilin D (CypD) was determined as 0.125 µM. Consider `CC[C@@H]1NC(=O)[C@H]([C@H](O)[C@H](C)C/C=C/CCC[n+]2ccc(N(C)C)c3ccc(C(F)(F)F)cc32)N(C)C(=O)[C@H](C(C)C)N(C)C(=O)[C@H](CC(C)C)N(C)C(=O)[C@H](CC(C)C)N(C)C(=O)[C@@H](C)NC(=O)[C@H](C)NC(=O)[C@H](CC(C)C)N(C)C(=O)[C@H](C(C)C)NC(=O)[C@H](CC(C)C)N(C)C(=O)CN(C)C1=O` [Compound 3, [Gly(1S,2R,E)-10-(4-dimethylamino-7-trifluoromethylquinolinium)1-hydroxy-2-methyldec-4-enoic acid]^1 CsA], for which the “inhibition of Ca2+ mediated PT pore formation” value in data set [1] is reported as “retain high levels inhibition”.

`C=CCC1C(=O)N(C)[C@@H](CC(C)C)C(=O)N[C@@H](C(C)C)C(=O)N(C)[C@@H](CC(C)C)C(=O)N[C@@H](C)C(=O)N[C@H](C)C(=O)N(C)[C@@H](CC(C)C)C(=O)N(C)[C@@H](CC(C)C)C(=O)N(C)[C@@H](C(C)C)C(=O)N(C)[C@@H]([C@H](O)[C@H](C)C/C=C/CCC[n+]2ccc(N(C)C)c3ccc(C(F)(F)F)cc32)C(=O)N[C@@H](CC)C(=O)N1C` (stereo partly shown) [Compound 4]: the “inhibition of Ca2+ mediated PT pore formation” value in data set [1] is “retain high levels inhibition”. Also, on Cylophilin D (CypD), the Ki worked out at 0.073 µM.

For `CC[C@@H]1NC(=O)[C@H]([C@H](O)[C@H](C)C/C=C/CCC[n+]2ccc(O)c3ccccc32)N(C)C(=O)[C@H](C(C)C)N(C)C(=O)[C@H](CC(C)C)N(C)C(=O)[C@H](CC(C)C)N(C)C(=O)[C@@H](C)NC(=O)[C@H](C)NC(=O)[C@H](CC(C)C)N(C)C(=O)[C@H](C(C)C)NC(=O)[C@H](CC(C)C)N(C)C(=O)CN(C)C1=O` [Compound 5, [Gly-(1S,2R,E)-8-(4-hydroxyquinolinium)-1-hydroxy-2-methyloct-4-ene]^1 CsA], the Ki at Cylophilin D (CypD) is 0.064 µM. On to `C/C=C/C[C@@H](C)[C@@H](O)[C@H]1C(=O)N[C@@H](CC)C(=O)N(C)C(C/C=C/CCC[n+]2ccc(O)c3ccccc32)C(=O)N(C)[C@@H](CC(C)C)C(=O)N[C@@H](C(C)C)C(=O)N(C)[C@@H](CC(C)C)C(=O)N[C@@H](C)C(=O)N[C@H](C)C(=O)N(C)[C@@H](CC(C)C)C(=O)N(C)[C@@H](CC(C)C)C(=O)N(C)[C@@H](C(C)C)C(=O)N1C` (stereo partly shown) [Compound 6, [Sar-(E)-Hexen-2-yl-6-(4-hydroxy)quinolinium]^3 CsA], for which, on Cylophilin D (CypD), the Ki is 0.046 µM. With `CC[C@@H]1NC(=O)[C@H]([C@H](O)[C@H](C)C/C=C/CCC(=O)Nc2ccc(NCc3ccc(F)cc3)nc2N)N(C)C(=O)[C@H](C(C)C)N(C)C(=O)[C@H](CC(C)C)N(C)C(=O)[C@H](CC(C)C)N(C)C(=O)[C@@H](C)NC(=O)[C@H](C)NC(=O)[C@H](CC(C)C)N(C)C(=O)[C@H](C(C)C)NC(=O)[C@H](CC(C)C)N(C)C(=O)CN(C)C1=O` [Reference Compound 1, [Gly-(1S,2R,E)-7-(flupirtine)-1-hydroxy-2-methyloct-4-enamide]^1 CsA, reference compound], the “toxicity (cell health markers) compared with unmodified CsA” value with HepG2 cells was “A similar reduction in toxicity was not observed”.
